One data set has as its target T1, human A1 receptor (Homo sapiens, UniProt P30542).
T1 sequence (P30542 1-326): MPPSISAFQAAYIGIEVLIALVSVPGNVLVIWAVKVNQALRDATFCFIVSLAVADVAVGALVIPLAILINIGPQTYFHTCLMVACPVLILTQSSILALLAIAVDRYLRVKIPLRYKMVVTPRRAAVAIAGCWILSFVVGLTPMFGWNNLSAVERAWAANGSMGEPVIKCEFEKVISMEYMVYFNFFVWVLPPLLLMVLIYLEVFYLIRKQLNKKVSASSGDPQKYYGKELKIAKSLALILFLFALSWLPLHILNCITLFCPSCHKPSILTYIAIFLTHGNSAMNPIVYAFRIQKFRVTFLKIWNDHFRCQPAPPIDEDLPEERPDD
Briefly: Adenosine antagonistic activity, radioligand binding, A1 receptor. The conditions noted are these: [3H]DPCPX 4.5 nM. How it is done:
(§1) Test 1: Adenosine Antagonistic Activity
(§2) The adenosine antagonistic activity [Ki(nM)] of the test compound was examined by radioligand binding techniques using 8-cyclopentyl-1,3-dipropylxanthine, [dipropyl-2,3-^3H(N)] ([^3H]DPCPX, 4.5 nM) for human A1 receptor and [^3H]CGS 21680 (20 nM) for human A2a receptor.

For another data set, the target named is human A2a receptor (Homo sapiens, UniProt P29274). Briefly: Adenosine antagonistic activity, radioligand binding, A2a receptor. The note with it: [3H]CGS 21680 20 nM. The procedure: as §1, §2
In the next data set the test system is ddY mice. Kind of data set: Anticatalepsy activity in mouse (haloperidol-induced catalepsy). In kind it is in vivo. The conditions noted are these: 3.2 mg/kg orally, ddY mice n=7; haloperidol 0.32 mg/kg i.p. 30 min after compound; measured 30 min after injection, bar test up to 30 sec. How it is done:
Test 2: Anticatalepsy Activity in Mouse
The test compound (3.2 mg/kg) was administered orally with ddY mice (n=7). Then, haloperidol (0.32 mg/kg) was injected intraperitoneally 30 min. after the administration of the compound. Thirty min. after the injection, the cataleptic responses of mice were measured. The forelimbs of each mouse were placed on a 3 cm high, 3 mm wide horizontal bar, and the duration of cataleptic posture was measured for up to 30 sec.

Sequence of human A2a receptor (P29274 whole entry): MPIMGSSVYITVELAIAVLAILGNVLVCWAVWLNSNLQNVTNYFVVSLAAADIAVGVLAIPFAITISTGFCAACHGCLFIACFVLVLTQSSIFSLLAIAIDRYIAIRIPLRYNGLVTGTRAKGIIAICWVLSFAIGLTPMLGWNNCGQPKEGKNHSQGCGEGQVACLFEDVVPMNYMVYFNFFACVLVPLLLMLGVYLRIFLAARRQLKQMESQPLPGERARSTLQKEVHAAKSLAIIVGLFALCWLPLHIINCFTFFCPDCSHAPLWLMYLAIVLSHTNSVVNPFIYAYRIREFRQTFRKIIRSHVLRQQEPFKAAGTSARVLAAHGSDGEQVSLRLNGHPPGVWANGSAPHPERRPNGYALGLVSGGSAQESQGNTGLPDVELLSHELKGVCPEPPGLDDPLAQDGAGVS

On to `COc1ccn2nc(-c3ccccc3)c(-c3ccc(=O)n(C(C)C)n3)c2c1` [Example 2, 5-Methoxy-3-(3-oxo-2-isopropyl-2,3-dihydropyridazin-6-yl)-2-phenylpyrazolo[1,5-a]pyridine], for which the melting point is 180.5 to 181.5 °C. The Ki at human A1 receptor turned out to be 0.15 nM. The Ki on human A2a receptor came out at 1.38 nM. In addition, in the data set with ddY mice, the “Manifestation rate of catalepsy (number of mouse)” value is reported as 0/7.
In turn, `CC(C)n1nc(-c2c(-c3ccccc3)nn3ccc(OCCN(C)C)cc23)ccc1=O` [Example 4, 5-(2-Dimethylamino)ethoxy-3-(3-oxo-2-isopropyl-2,3-dihydropyridazin-6-yl)-2-phenylpyrazolo[1,5-a]pyridine] had a melting point of 138 to 139 °C. Besides, the Ki on human A1 receptor was 0.98 nM. This molecule registered a Ki on human A2a receptor of 2.35 nM. The “Manifestation rate of catalepsy (number of mouse)” value in the data set with ddY mice is given as 0/7.

For orientation: Ki means a dissociation constant, usually derived from enzyme kinetics or from competition with a known ligand. Low readings indicate higher affinity, high ones lower affinity. What is called melting point is the temperature, or range, at which the solid turns liquid.

The values above are taken from patent US20040110763A1, “Pyrazolopyridine compound and pharmaceutical use thereof” (priority 2000, published 2004).
